Source: patent publication US10329542B2, “HBV RNAse H purification and enzyme inhibitors” (Saint Louis University, priority 2012, dated 2019)

Experiments:
[1] = target: T1, HBV genotype D RNAseH (HRHPL) (Hepatitis B virus genotype D subtype ayw, UniProt P03156, INS679M); assay: Oligonucleotide-directed RNAseH cleavage assay, HBV genotype D; type: biochemical; details: for Activity vs. HBV Biochemical vs. gtD: class by concentration giving inhibition (10, 20, 60 μM); for Residual activity at 10 uM, Genotype D: ± standard deviation, 3 to 7 replicates
T1 construct: HRHPL contains HBV genotype D (Genbank V01460) polymerase residues 684-845; made in house; host or cells: E. coli BL21 codon+
T1 sequence (P03156 680-832, added parts left off, stated change not applied): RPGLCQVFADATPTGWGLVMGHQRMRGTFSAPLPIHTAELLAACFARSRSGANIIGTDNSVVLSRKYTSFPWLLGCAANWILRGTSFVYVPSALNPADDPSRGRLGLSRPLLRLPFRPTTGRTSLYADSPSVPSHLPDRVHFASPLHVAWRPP
Description: (§1) For the oligonucleotide-directed RNAseH cleavage assay (Gong et al., 2001), 6 μl protein extract (typical protein concentration 2.8 mg/ml) was mixed with 0.5 μg internally ^32P-labeled DRF+ RNA (nucleotides 2401-2605 of the duck HBV genome plus 60 nucleotides of flanking sequences from pBluescript) and 3 μg oligonucleotide D2507- or its corresponding negative control D2526+ on ice in 20 μl under the conditions in Table 1. Some reactions in FIG. 5 employed oligonucleotide D2543M-Sal or its D2453+ negative control as indicated. The reactions were incubated at 42° C. for 90 min. and terminated by addition of Laemmli protein loading buffer and boiling. The samples were resolved by 12% SDS-PAGE, the gels were stained with Coomassie blue to monitor protein loading, and labeled RNA was detected by autoradiography. Candidate inhibitors were dissolved in DMSO and added at the indicated concentrations during assembly of the reactions. Control reactions lacking the compounds contained DMSO as a vehicle control. The RNAseH autoradiograms were scanned and quantified with ImageJ.
(§2) Oligonucleotide-directed RNAseH cleavage assays (Gong et al., 2001) were performed as described (Tavis et al., 2013). Briefly, HBV RNAseH extracts were mixed with a 264 nt-long internally ^32P-labeled RNA plus an excess of a complementary DNA oligonucleotide or its inverse-complement as a negative control in a final concentration of 65 mM Tris pH 8.0, 190 mM NaCl, 5 mM MgCl2, 5 mM dTT, 0.05% NP40, and 6% glycerol. βTJ was dissolved in DMSO and added at the indicated concentrations; the final concentration of DMSO in all reactions was 1%. The reactions were incubated at 42° C. for 90 min. and terminated by addition of Laemmli protein electrophoresis buffer. The samples were resolved by SDS-PAGE, labeled RNA was detected by autoradiography, the autoradiograms were scanned, and the RNA cleavage products were quantified with ImageJ (National Institutes of Health). IC50 values were calculated by non-linear regression using GraphPad Prism (GraphPad Software, Inc.).

HBV genotype C RNAseH = assay: Oligonucleotide-directed RNAseH cleavage assay, HBV genotype C; type: biochemical, Hepatitis B virus; details: class by concentration giving inhibition (10, 20, 60 μM)
Description: as §1, with “ImageJ. The oligonucleotides were: D2526+([…]; SEQ ID NO:8), D2507-([…]; SEQ ID NO:9), D2453+([…]; SEQ ID NO:10), and D2543M-Sal ([…]; SEQ ID NO:11).” for “ImageJ.”
Incremental improvements were developed in extraction of the HBV RNAseH from the bacterial cell pellets since the data were generated for Examples 1 and 2. Key among these was shifting from using a cup sonicator to a probe sonicator and reducing the duration of the sonication period from 3×60 second bursts to 3×20 second bursts. When the […] genotype C clone that had inconsistent activity under the old extraction conditions (FIG. 6C) was isolated under these conditions, it became consistently and robustly active (FIG. 16).

human RNAseH1 = target: T2, human RNAseH1 (Homo sapiens, UniProt O60930); assay: Oligonucleotide-directed RNAseH assay, recombinant human RNAseH1; type: biochemical; details: for Activity vs. human RNAseH1: class by concentration giving inhibition (10, 20, 60 μM)
T2 construct: hexahistidine (N); made in house; host or cells: E. coli BL21 codon+
T2 sequence (O60930 1-286): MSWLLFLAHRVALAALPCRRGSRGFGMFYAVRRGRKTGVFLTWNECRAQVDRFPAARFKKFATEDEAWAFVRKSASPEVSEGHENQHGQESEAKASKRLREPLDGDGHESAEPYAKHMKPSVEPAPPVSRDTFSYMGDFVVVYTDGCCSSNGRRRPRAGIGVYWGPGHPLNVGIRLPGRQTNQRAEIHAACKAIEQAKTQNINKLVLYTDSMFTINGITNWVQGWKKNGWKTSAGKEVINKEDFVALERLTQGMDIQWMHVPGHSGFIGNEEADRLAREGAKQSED
Description: as §1, with “ImageJ. The oligonucleotides were: D2526+([…]; SEQ ID NO:8), D2507-([…]; SEQ ID NO:9), D2453+([…]; SEQ ID NO:10), and D2543M-Sal ([…]; SEQ ID NO:11).” for “ImageJ.”
Therefore, the inventors cloned the human RNAseH1 with an N-terminal hexahistidine tag, expressed it in E. coli, and purified the protein by nickel affinity chromatography. […] This enzyme was active in the oligonucleotide-directed and fluorescent RNAseH assays (FIG. 10B and data not shown). To determine how inhibition of human RNAseH1 compared to inhibition of the HBV RNAseH, the inventor titrated the RNAaseH1 enzyme to yield similar levels of activity as the HBV enzyme, and then the inventor directly compared the ability of compounds #8-12 to inhibit human RNAseH1 and HRHPL at 10 μM. […] Therefore, it is possible to inhibit the HBV RNAseH without inhibiting human RNAseH1.
as §2

HBV [2] = assay: HBV genomic replication assays (Table 2); type: cell-based, Hepatitis B virus; details: class by active concentration
Description: Huh7 cells were maintained in Dulbecco's modified Eagle's medium with 10% fetal bovine serum at 37° C. in 5% CO2. Cells were seeded into 60 mm dishes and transfected at 70% confluency with 2.6 μg of plasmids using TransIT-LT1 (Mirus, Inc.). Test compounds were added the morning following transfection at 10 or 50 μM, and fresh medium containing the compounds was provided every 1-2 days. Four or five days post-transfection HBV cores were isolated by lysis of the cells in 10 mM Tris pH 7.5, 1 mM EDTA, 0.25% NP40, 50 mM NaCl, and 8% sucrose followed by sedimentation through a 30% sucrose cushion as described (Travis, et al., 1998). Viral DNAs were isolated from cytoplasmic core particle preparations by proteinase K digestion followed by phenol/chloroform extraction as described (Gong et al., 2001). Duplicate aliquots of the nucleic acids were treated with 2 U E. coli DNAse-free RNAseH (Invitrogen) at 37° C. for 30 min. or were mock treated. The nucleic acid samples were resolved by electrophoresis on 1.2% agarose gels and detected by Southern blotting with ^32P-labeled HBV DNA as a probe. […]

HBV genotype H RNAseH = assay: Oligonucleotide-directed RNAseH cleavage assay, HBV genotype H; type: biochemical, Hepatitis B virus; details: 10 μM; ± standard deviation, 3 to 7 replicates
Description: as §1, with “ImageJ. The oligonucleotides were: D2526+([…]; SEQ ID NO:8), D2507-([…]; SEQ ID NO:9), D2453+([…]; SEQ ID NO:10), and D2543M-Sal ([…]; SEQ ID NO:11).” for “ImageJ.”
as §2

[3] = target: T3, chimeric HBV:HIV RNAseH HHC1 (Hepatitis B virus genotype D subtype ayw, UniProt P03156, DELINS787-795[…]/INS679M); assay: Oligonucleotide-directed RNAseH cleavage assay, chimeric HHC1; type: biochemical; details: 10 μM; ± standard deviation, 3 to 7 replicates
T3 construct: HHC1 is an HRHPL derivative; made in house; host or cells: E. coli BL21 codon+
T3 sequence (P03156 680-786, added parts left off, stated change not applied): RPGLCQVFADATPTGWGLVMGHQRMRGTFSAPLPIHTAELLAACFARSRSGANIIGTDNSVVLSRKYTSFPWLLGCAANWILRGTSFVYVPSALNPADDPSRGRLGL
Source text: pCMV-HBV-LE-(CMV-HBV) is an HBV over-length genomic expression vector containing 1.2 copies of the HBV(adw2) genome (Genbank X02763.1) downstream of the CMV promoter cloned into pBS (Promega). Surface protein expression from this vector is ablated by mutating the preS and S open reading frames. pCMV-HBV(genotype D) is an analogous HBV genomic expression construct and was a gift from Dr. Shuping Tong (Brown University). For bacterial expression, codon-optimized cDNA sequences for HRHPL (genotypes A, B, C, D, and H), and noncodon-optimized sequences for HHC1 and HHC2 were cloned by gene synthesis (Genscript) between the NcoI and EcoRI sites into pTrcHis2B (Invitrogen) with a C-terminal hexahistidine tag. HRHPL contains HBV genotype D (Genbank V01460) polymerase residues 684-845. HHC1 is an HRHPL derivative in which HBV polymerase residues 800-808 were replaced with HIV residues corresponding to the RNAseH helix D ([…]; SEQ ID NO:6). HHC2 is an HRHPL derivative in which HBV polymerase residues 800-845 were replaced with HIV residues corresponding to the RNAseH helix D to the C-terminus ([…]; SEQ ID NO:7). The human RNAseH1 gene (NP_002927.2) was cloned with an N-terminal hexahistidine-tag between the BamHI and XhoI sites of pRsetB (Invitrogen) by gene synthesis.
as §1, with “ImageJ. The oligonucleotides were: D2526+([…]; SEQ ID NO:8), D2507-([…]; SEQ ID NO:9), D2453+([…]; SEQ ID NO:10), and D2543M-Sal ([…]; SEQ ID NO:11).” for “ImageJ.”

HBV [4] = assay: Quantitative PCR screen of HBV plus-polarity DNA accumulation; type: cell-based, Hepatitis B virus; details: 60, 20, or 6.7 μM; DNA isolated day 3
Description: This assay was employed to screen 7 compounds for their ability to suppress HBV replication (FIG. 17). […] Fresh medium containing compound was provided on days 1 and 2, and capsid-associated HBV DNAs were isolated on day 3. HBV plus-strand DNAs were measured using the cross-gap TaqMan PCR assay.
Plus-polarity preferential quantitative TaqMan PCR for the HBV DNA was conducted employing forward primer […] […] PCR was conducted on purified HBV capsid-derived nucleic acids for 40 cycles of 95° C. for 15 sec. and 65° C. for 1 min. employing the TaqMan universal PCR master mix (Applied Biosystems). Results were standardized against serial dilutions of cloned HBV DNA. The EC50 was estimated by linear regression of the real-time PCR data.

Row | SMILES | Activity vs. HBV Biochemical vs. gtD [1] | Activity vs. HBV Biochemical vs. gtC (HBV genotype C RNAseH) | Activity vs. human RNAseH1 (human RNAseH1) | further results
1 | Cn1c(N2CCCCS2(=O)=O)nc(C(=O)NCc2ccc(F)cc2)c(O)c1=O [Compound 72, reference compound] | ++ (++ inhibition at 20 μM) | + (+ inhibition at 60 μM) |  | 
2 | O=C1c2cccc3cccc(c23)C(=O)N1O [Compound 45] | − (− no inhibition at 60 μM) | + (+ inhibition at 60 μM) | − (− no inhibition at 60 μM) | Activity vs. HBV Genomic Replication (HBV [2]): − (− no activity at 60 μM)
3 | CCn1cc(C(=O)O)c(=O)c2cc(Cc3ccccc3)c(OCCOC)cc21 [Compound 69] | ++ (++ inhibition at 20 μM) | + (+ inhibition at 60 μM) |  | 
4 | O=c1cc2oc3cc(O)c(O)cc3c(-c3ccccc3)c-2cc1O [Compound 31] | +++ (+++ inhibition at 10 μM) |  | +++ (+++ inhibition at 10 μM) | Residual activity at 10 uM, Genotype D [1]: 26 ± 15 Percent DMSO control; Residual activity at 10 uM, Genotype H (HBV genotype H RNAseH): 50 ± 10 Percent DMSO control; Residual activity at 10 uM, HHC1 [3]: 42 ± 12 Percent DMSO control; Activity vs. HBV Genomic Replication (HBV [2]): − (− no activity at 60 μM)
5 | CCn1cc(C(=O)O)c(=O)c2cc(F)c(N3CCNCC3)nc21 [Compound 71, Enoxacin, reference compound] | − (− no inhibition at 60 μM) | − (− no inhibition at 60 μM) |  | 
6 | CC(C)n1cc(C(=O)O)c(=O)c2ccccc21 [Compound 64] | + (+ inhibition at 60 μM) | − (− no inhibition at 60 μM) |  | 
7 | O=c1c(O)c(-c2cc(O)c(O)c(O)c2)oc2cc(O)cc(O)c12 [Compound 9] | ++ (++ inhibition at 20 μM) |  | ++ (++ inhibition at 20 μM) | Residual activity at 10 uM, Genotype D [1]: 33 ± 10 Percent DMSO control; Residual activity at 10 uM, Genotype H (HBV genotype H RNAseH): 66 ± 23 Percent DMSO control; Residual activity at 10 uM, HHC1 [3]: 58 ± 15 Percent DMSO control; Inhibition of human RNAseH1 (human RNAseH1; 10 μM, compared directly with HRHPL): inhibited it weakly; Activity vs. HBV Genomic Replication (HBV [2]): − (− no activity at 60 μM)
8 | O=c1ccc2ccccc2n1O [Compound 43] | − (− no inhibition at 60 μM) | + (+ inhibition at 60 μM) | − (− no inhibition at 60 μM) | 
9 | Cc1cc(C)c(C#N)c(=O)[nH]1 [Compound 20] | − (− no inhibition at 60 μM) | − (− no inhibition at 60 μM) |  | 
10 | CC(C)c1ccc(O)c(=O)cc1 [Compound 48] |  |  |  | Suppression of HBV plus-polarity DNA accumulation (HBV [4]): did not suppress HBV plus-polarity DNA accumulation
11 | C[C@@H]1CCO[C@H]2Cn3cc(C(=O)NCc4ccc(F)cc4F)c(=O)c(O)c3C(=O)N12 [Compound 73, Dolutegravir, reference compound] | + (+ inhibition at 60 μM) | − (− no inhibition at 60 μM) |  | 
